Reference: ChEMBL document CHEMBL5705893, “Targeting the mitotic checkpoint for cancer therapy with NMS-P715, an inhibitor of MPS1 kinase” (Cancer Res, 2010)
pIC50: −log10 of the molar value. Calls of active or inactive are those of the source. The rule behind the calls is not given here.

What was measured:
[1] = Inhibition of recombinant ABL (unknown origin); design: species or system Homo sapiens
[2] = biological target: CDC7/DBF4 (Cell division cycle 7-related protein kinase/Activator of S phase kinase) (Homo sapiens, UniProt O00311); experiment: Inhibition of recombinant CDC7/DBF4 (unknown origin); type: protein-complex assay
[3] = biological target: Cyclin-dependent kinase 4/cyclin D1 (Homo sapiens, UniProt P11802); experiment: Inhibition of recombinant CDK4/CYCD1 (unknown origin); type: protein-complex assay
[4] = biological target: Fibroblast growth factor receptor 1 (Homo sapiens, UniProt P11362); experiment: Inhibition of recombinant FGFR1 (unknown origin)
[5] = biological target: Eukaryotic translation initiation factor 2-alpha kinase 3 (Homo sapiens, UniProt Q9NZJ5); experiment: Inhibition of recombinant PERK (unknown origin)
[6] = biological target: Serine/threonine-protein kinase pim-1 (Homo sapiens, UniProt P11309); experiment: Inhibition of recombinant PIM1 (unknown origin)
[7] = biological target: Serine/threonine-protein kinase PLK3 (Homo sapiens, UniProt Q9H4B4); experiment: Inhibition of recombinant PLK3 (unknown origin)
[8] = biological target: High affinity nerve growth factor receptor (Homo sapiens, UniProt P04629); experiment: Inhibition of recombinant TRKA (unknown origin)
[9] = biological target: Tyrosine-protein kinase ZAP-70 (Homo sapiens, UniProt P43403); experiment: Inhibition of recombinant ZAP70 (unknown origin)
[10] = test system: MDA-MB-231; experiment: Antiproliferative activity against human MDA-MB-231 cells assessed as inhibition of cell growth incubated for 72 hrs by celltiter-glo assay; type: functional, cell-based; settings: MDA-MB-231, 72 h
[11] = test system: SW480; experiment: Antiproliferative activity against human SW480 cells assessed as inhibition of cell growth incubated for 72 hrs by celltiter-glo assay; type: functional, cell-based; settings: SW480, 72 h
[12] = test system: HCC 2998; experiment: Antiproliferative activity against human HCC 2998 cells assessed as inhibition of cell growth incubated for 72 hrs by celltiter-glo assay; type: functional, cell-based; settings: HCC 2998, 72 h
[13] = test system: LS180; experiment: Antiproliferative activity against human LS180 cells assessed as inhibition of cell growth incubated for 72 hrs by celltiter-glo assay; type: functional, cell-based; settings: LS180, 72 h
[14] = test system: SF-295; experiment: Antiproliferative activity against human SF-295 cells assessed as inhibition of cell growth incubated for 72 hrs by celltiter-glo assay; type: functional, cell-based; settings: SF-295, 72 h
[15] = test system: SNB-19; experiment: Antiproliferative activity against human SNB-19 cells assessed as inhibition of cell growth incubated for 72 hrs by celltiter-glo assay; type: functional, cell-based; settings: SNB-19, 72 h
[16] = test system: SF-539; experiment: Antiproliferative activity against human SF-539 cells assessed as inhibition of cell growth incubated for 72 hrs by celltiter-glo assay; type: functional, cell-based; settings: SF-539, 72 h
[17] = test system: HEL; experiment: Antiproliferative activity against human HEL cells assessed as inhibition of cell growth incubated for 72 hrs by celltiter-glo assay; type: functional, cell-based
[18] = test system: NCI-H889; experiment: Antiproliferative activity against human NCI-H889 cells assessed as inhibition of cell growth incubated for 72 hrs by celltiter-glo assay; type: functional, cell-based; settings: NCI-H889, 72 h
[19] = test system: NCI-H460; experiment: Antiproliferative activity against human NCI-H460 cells assessed as inhibition of cell growth incubated for 72 hrs by celltiter-glo assay; type: functional, cell-based; settings: NCI-H460, 72 h
[20] = test system: NCI-H2228; experiment: Antiproliferative activity against human NCI-H2228 cells assessed as inhibition of cell growth incubated for 72 hrs by celltiter-glo assay; type: functional, cell-based; settings: NCI-H2228, 72 h
[21] = test system: HOP-62; experiment: Antiproliferative activity against human HOP-62 cells assessed as inhibition of cell growth incubated for 72 hrs by celltiter-glo assay; type: functional, cell-based; settings: HOP-62, 72 h
[22] = test system: SU-DHL-6; experiment: Antiproliferative activity against human SU-DHL-6 cells assessed as inhibition of cell growth incubated for 72 hrs by celltiter-glo assay; type: functional, cell-based; settings: SU-DHL-6, 72 h
[23] = Antiproliferative activity against human DERL-7 cells assessed as inhibition of cell growth incubated for 72 hrs by celltiter-glo assay; type: functional, cell-based; settings: DERL7, 72 h
[24] = test system: A-375; experiment: Antiproliferative activity against human A-375 cells assessed as inhibition of cell growth incubated for 72 hrs by celltiter-glo assay; type: functional, cell-based; settings: A-375, 72 h
[25] = test system: SK-MEL-2; experiment: Antiproliferative activity against human SK-MEL-2 cells assessed as inhibition of cell growth incubated for 72 hrs by celltiter-glo assay; type: functional, cell-based; settings: SK-MEL-2, 72 h
[26] = test system: UACC-257; experiment: Antiproliferative activity against human UACC-257 cells assessed as inhibition of cell growth incubated for 72 hrs by celltiter-glo assay; type: functional, cell-based; settings: UACC-257, 72 h
[27] = test system: RPMI-8226; experiment: Antiproliferative activity against human RPMI-8226 cells assessed as inhibition of cell growth incubated for 72 hrs by celltiter-glo assay; type: functional, cell-based; settings: RPMI-8226, 72 h
[28] = test system: NCI-H929; experiment: Antiproliferative activity against human NCI-H929 cells assessed as inhibition of cell growth incubated for 72 hrs by celltiter-glo assay; type: functional, cell-based; settings: NCI-H929, 72 h
[29] = test system: BJ; experiment: Antiproliferative activity against human BJ cells assessed as inhibition of cell growth incubated for 72 hrs by celltiter-glo assay; type: functional, cell-based
[30] = test system: MIA PaCa-2; experiment: Antiproliferative activity against human MIA PaCa-2 cells assessed as inhibition of cell growth incubated for 72 hrs by celltiter-glo assay; type: functional, cell-based; settings: MIA PaCa-2, 72 h
[31] = test system: CAPAN-1; experiment: Antiproliferative activity against human CAPAN-1 cells assessed as inhibition of cell growth incubated for 72 hrs by celltiter-glo assay; type: functional, cell-based; settings: CAPAN-1, 72 h
[32] = test system: CAKI-1; experiment: Antiproliferative activity against human CAKI-1 cells assessed as inhibition of cell growth incubated for 72 hrs by celltiter-glo assay; type: functional, cell-based; settings: CAKI-1, 72 h
[33] = biological target: Maternal embryonic leucine zipper kinase (Homo sapiens, UniProt Q14680); experiment: Inhibition of recombinant MELK (unknown origin) preincubated for 60 mins
[34] = test system: HeLa; experiment: Effect on CENPB level in human nocodazole-arrested HeLa cells at 1 micromol/L in presence of MG132; type: functional, cell-based; settings: dose 1.0 µmol/L
[35] = test system: HeLa; experiment: Effect on BUBR1 level in human nocodazole-arrested HeLa cells at 1 micromol/L in presence of MG132; type: functional, cell-based; settings: dose 1.0 µmol/L
[36] = test system: HCT-116; experiment: Cell cycle arrest in human HCT-116 cells assessed as accumulation of cells at G2/M phase at 0.2 to 1 micromol/L incubated for 48 hrs by FACS/PI staining based flow cytometric analysis; type: functional; settings: dose 0.2-1 µmol/L
[37] = test system: A2780; experiment: Induction of apoptosis in human A2780 cells assessed as PARP clevage at 0.2 to 1 micromol/L incubated for 2 to 72 hrs by Western blot analysis; type: functional, cell-based; settings: dose 0.2-1 µmol/L, time 2-72 hrs
[38] = Half life in Athymic nu-nu mouse at 100 mg/kg, po measured upto 24 hrs by LC-MS/MS analysis; type: ADME, organism-based; settings: in vivo
[39] = AUC in Athymic nu-nu mouse at 10 mg/kg, iv measured upto 24 hrs by LC-MS/MS analysis; type: ADME, organism-based; settings: in vivo
[40] = biological target: Cyclin-dependent kinase 5/CDK5 activator 1 (Homo sapiens, UniProt Q00535)
Description: Inhibition of recombinant CDK5/P25 (unknown origin)

[41] = biological target: Dual specificity protein kinase TTK (Homo sapiens) (UniProt P33981)
Chain of Dual specificity protein kinase TTK (Homo sapiens) (P33981 whole entry): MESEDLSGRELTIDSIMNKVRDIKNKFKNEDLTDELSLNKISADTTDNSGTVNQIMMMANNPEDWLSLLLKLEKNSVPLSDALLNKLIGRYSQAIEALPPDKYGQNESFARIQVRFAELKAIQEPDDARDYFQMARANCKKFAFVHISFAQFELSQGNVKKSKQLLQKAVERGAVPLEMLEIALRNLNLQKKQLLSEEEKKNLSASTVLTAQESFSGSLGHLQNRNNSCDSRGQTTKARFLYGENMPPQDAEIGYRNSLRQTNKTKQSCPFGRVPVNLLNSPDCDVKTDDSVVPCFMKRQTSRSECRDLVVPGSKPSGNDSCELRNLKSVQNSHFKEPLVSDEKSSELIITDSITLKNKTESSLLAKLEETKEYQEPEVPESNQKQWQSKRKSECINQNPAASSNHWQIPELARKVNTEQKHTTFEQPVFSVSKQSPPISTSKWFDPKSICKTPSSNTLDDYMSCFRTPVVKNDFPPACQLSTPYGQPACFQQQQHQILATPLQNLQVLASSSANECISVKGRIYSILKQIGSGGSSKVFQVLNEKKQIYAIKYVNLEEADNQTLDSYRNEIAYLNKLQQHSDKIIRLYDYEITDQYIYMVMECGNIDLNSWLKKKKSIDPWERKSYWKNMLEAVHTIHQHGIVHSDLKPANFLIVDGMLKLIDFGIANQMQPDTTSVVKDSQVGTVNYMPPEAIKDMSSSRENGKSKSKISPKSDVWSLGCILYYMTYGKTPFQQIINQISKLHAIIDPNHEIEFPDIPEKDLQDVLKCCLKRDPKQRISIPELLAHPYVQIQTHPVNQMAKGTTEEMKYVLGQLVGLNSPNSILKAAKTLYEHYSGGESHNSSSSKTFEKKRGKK
Description: Binding affinity to recombinant human MPS1 assessed as half life

Chain of Cyclin-dependent kinase 5/CDK5 activator 1 (Q00535 whole entry): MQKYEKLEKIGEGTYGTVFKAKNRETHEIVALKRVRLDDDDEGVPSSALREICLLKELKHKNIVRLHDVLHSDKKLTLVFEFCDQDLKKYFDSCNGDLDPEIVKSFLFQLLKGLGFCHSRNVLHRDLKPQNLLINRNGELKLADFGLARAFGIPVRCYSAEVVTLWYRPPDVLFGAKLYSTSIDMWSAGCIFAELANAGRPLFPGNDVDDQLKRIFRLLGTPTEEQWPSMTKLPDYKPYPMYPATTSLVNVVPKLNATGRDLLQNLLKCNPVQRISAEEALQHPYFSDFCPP
Chain of Cyclin-dependent kinase 5/CDK5 activator 1 (Q15078 whole entry, further chain): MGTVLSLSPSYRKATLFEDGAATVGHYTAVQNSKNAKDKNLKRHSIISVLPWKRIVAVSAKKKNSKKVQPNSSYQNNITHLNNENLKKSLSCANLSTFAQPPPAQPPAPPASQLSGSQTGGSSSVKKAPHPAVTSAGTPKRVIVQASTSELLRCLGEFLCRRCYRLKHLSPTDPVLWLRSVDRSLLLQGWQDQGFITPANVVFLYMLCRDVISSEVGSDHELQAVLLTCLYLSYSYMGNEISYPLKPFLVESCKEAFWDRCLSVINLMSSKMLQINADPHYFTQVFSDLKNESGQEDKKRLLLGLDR
Chain of Fibroblast growth factor receptor 1 (P11362 whole entry): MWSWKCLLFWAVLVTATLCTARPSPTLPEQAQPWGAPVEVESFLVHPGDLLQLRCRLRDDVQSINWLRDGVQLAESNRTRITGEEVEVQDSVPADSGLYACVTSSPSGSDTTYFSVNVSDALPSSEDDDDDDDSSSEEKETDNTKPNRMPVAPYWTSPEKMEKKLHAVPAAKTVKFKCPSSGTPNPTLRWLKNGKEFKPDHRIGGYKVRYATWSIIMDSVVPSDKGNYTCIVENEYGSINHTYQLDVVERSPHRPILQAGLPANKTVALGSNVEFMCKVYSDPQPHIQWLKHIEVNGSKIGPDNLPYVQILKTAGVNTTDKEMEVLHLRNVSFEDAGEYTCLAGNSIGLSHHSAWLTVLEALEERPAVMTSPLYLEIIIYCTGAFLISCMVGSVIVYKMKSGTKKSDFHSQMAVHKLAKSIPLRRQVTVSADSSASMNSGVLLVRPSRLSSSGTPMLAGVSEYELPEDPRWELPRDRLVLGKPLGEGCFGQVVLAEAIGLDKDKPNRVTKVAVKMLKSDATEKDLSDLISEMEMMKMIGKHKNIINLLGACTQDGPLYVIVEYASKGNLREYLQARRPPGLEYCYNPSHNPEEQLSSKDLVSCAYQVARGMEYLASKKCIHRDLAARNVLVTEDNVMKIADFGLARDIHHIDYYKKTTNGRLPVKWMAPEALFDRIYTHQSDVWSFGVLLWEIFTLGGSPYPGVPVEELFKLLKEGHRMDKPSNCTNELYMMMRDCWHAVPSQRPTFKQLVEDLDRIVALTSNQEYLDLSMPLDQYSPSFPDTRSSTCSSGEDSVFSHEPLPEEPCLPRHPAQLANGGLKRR
Chain of Serine/threonine-protein kinase pim-1 (P11309 whole entry): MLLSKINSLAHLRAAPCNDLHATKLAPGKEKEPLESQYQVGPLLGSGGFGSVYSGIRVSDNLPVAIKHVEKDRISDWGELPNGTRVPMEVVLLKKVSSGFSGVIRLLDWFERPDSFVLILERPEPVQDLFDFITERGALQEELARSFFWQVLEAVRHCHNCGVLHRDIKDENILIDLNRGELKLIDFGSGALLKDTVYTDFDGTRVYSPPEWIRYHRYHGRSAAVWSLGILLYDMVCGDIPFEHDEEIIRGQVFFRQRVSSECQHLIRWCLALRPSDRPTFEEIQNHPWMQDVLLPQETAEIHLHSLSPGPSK
Chain of Cyclin-dependent kinase 4/cyclin D1 (P11802 whole entry): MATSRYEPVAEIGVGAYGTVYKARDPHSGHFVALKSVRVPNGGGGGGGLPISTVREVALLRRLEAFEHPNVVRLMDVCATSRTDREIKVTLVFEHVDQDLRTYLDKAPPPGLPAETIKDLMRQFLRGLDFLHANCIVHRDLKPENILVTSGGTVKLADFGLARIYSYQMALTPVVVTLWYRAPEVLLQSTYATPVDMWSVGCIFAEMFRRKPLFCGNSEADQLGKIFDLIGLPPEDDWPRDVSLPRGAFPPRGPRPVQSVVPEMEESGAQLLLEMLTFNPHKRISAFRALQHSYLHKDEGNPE
Chain of Cyclin-dependent kinase 4/cyclin D1 (P24385 whole entry, further chain): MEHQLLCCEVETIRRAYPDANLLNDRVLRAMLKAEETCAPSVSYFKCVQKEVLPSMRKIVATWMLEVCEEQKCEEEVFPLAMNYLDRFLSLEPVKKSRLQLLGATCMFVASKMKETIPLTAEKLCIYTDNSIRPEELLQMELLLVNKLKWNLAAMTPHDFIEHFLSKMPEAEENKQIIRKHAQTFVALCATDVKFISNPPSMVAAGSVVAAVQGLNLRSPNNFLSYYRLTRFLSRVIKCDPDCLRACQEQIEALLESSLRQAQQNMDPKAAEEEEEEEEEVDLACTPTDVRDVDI
Chain of Serine/threonine-protein kinase PLK3 (Q9H4B4 whole entry): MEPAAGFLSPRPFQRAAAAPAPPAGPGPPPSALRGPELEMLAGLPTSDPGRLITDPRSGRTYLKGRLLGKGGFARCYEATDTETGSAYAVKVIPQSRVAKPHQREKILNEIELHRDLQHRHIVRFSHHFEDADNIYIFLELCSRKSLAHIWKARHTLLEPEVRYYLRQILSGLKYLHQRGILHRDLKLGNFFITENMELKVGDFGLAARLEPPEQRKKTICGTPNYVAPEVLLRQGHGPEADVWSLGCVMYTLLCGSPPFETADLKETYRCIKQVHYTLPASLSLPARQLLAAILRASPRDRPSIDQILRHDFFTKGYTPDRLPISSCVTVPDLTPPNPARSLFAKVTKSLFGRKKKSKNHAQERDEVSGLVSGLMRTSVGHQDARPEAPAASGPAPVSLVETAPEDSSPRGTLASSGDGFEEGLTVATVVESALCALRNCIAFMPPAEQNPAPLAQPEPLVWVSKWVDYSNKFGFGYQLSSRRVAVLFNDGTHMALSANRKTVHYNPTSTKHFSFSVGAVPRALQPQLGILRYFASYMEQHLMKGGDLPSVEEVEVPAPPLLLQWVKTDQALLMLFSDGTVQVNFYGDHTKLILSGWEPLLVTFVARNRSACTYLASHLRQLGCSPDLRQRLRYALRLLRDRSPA
Chain of Maternal embryonic leucine zipper kinase (Q14680 whole entry): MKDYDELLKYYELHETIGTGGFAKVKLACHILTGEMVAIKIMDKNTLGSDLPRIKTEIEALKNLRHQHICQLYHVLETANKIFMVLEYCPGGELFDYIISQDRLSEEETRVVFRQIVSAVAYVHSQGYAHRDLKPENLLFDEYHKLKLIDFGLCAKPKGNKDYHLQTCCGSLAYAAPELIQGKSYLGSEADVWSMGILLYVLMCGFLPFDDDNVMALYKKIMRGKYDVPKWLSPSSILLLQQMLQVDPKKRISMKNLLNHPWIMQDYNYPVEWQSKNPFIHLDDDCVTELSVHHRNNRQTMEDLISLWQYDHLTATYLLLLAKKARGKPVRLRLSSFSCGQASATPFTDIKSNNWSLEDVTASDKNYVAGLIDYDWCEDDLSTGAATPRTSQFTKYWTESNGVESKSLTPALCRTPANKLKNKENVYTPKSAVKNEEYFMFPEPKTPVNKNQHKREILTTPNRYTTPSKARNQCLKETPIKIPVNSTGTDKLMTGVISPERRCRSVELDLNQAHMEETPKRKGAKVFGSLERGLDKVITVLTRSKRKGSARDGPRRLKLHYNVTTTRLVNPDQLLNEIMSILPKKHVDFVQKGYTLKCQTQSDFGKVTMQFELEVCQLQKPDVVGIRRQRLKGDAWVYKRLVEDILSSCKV

CCc1cccc(CC)c1NC(=O)c1nn(C)c2c1CCc1cnc(Nc3ccc(C(=O)NC4CCN(C)CC4)cc3OC(F)(F)F)nc1-2
pIC50 [1]: < 5.00 | pIC50 [2]: < 5.00 | pIC50 [3]: < 5.00 | pIC50 [4]: < 5.00 | pIC50 [5]: < 5.00 | pIC50 [6]: < 5.00 | pIC50 [7]: < 5.00 | pIC50 [8]: < 5.00 | pIC50 [9]: < 5.00 | pIC50 [10]: 6.05 | pIC50 [11]: 5.89 | pIC50 [12]: 5.74 | pIC50 [13]: 5.66 | pIC50 [14]: 5.54 | pIC50 [15]: 5.16 | pIC50 [16]: 6.09 | pIC50 [17]: 5.26 | pIC50 [18]: 5.90 | pIC50 [19]: 5.66 | pIC50 [20]: 5.24 | pIC50 [21]: 5.11 | pIC50 [22]: 5.00 | pIC50 [23]: 5.07 | pIC50 [24]: 6.10 | pIC50 [25]: 5.83 | pIC50 [26]: 5.73 | pIC50 [27]: 5.83 | pIC50 [28]: 5.00 | pIC50 [29]: 5.26 | pIC50 [30]: 5.59 | pIC50 [31]: 5.28 | pIC50 [32]: 5.70 | pIC50 [33]: > 5.00 | Activity [34]: Active | Activity [35]: Active | Activity [36]: Active | Activity [37]: Active | half-life [38]: 16.8 h | AUC at 24 h [39]: 22.4 µM·h | pIC50 [40]: < 5.00 | T1/2 [41]: 9.76 min
